Assay results published in patent publication US10800792B2, “Inhibitors of Bruton's tyrosine kinase and method of their use” (JANSSEN PHARMACEUTICA NV, priority 2015, dated 2020).

What follows are molecules tested against unphosphorylated-BTK kinase domain (UP-BTK), GST-tagged human BTK (389-659aa) (Homo sapiens (Human), UniProt Q06187) (assay: BTK kinase Lanthascreen binding assay). Settings: Lanthascreen tracer competition, 60 minutes incubation; pIC50 = negative log of the IC50 in molar.
In short: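 Measures how well compounds compete with a fluorescence-labelled tracer for binding to BTK in its unphosphorylated state. IC50 values were fitted and expressed as pIC50 (negative logarithm of the molar IC50).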

Chain of unphosphorylated-BTK kinase domain (UP-BTK), GST-tagged human BTK (389-659aa) (Q06187 389-659): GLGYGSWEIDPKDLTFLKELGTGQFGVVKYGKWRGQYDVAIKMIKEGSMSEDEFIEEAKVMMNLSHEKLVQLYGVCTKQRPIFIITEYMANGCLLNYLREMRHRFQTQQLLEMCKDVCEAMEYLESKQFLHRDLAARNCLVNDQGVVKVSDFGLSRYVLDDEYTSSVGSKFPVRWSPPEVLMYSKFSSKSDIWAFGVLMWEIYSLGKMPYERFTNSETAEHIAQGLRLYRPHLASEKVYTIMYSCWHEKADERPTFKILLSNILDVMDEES

With CC(C)(C)c1cccc(N2C(=O)Nc3c(C(=O)N[C@@H]4CCCNC4)sc4nccc2c34)c1 [Example 646, (R)-5-(3-(tert-Butyl)phenyl)-4-oxo-N-(piperidin-3-yl)-4,5-dihydro-3H-1-thia-3,5,8-triazaacenaphthylene-2-carboxamide] the “BTK_I_binding pIC50” value was <5.
In the case of O=C(N[C@@H]1CCCNC1)c1sc2nccc3c2c1NC(=O)N3c1cccc(-c2ccccc2)n1 [Example 623, (R)-4-Oxo-5-(6-phenylpyridin-2-yl)-N-(piperidin-3-yl)-4,5-dihydro-3H-1-thia-3,5,8-triazaacenaphthylene-2-carboxamide], the “BTK_I_binding pIC50” value is reported as <6.
For CC(=O)c1cccc(N2C(=O)Nc3c(C(=O)N[C@@H]4CCCN(C(=O)OC(C)(C)C)C4)sc4nccc2c34)c1 [Example 649, (R)-tert-Butyl 3-(5-(3-acetylphenyl)-4-oxo-4,5-dihydro-3H-1-thia-3,5,8-triazaacenaphthylene-2-carboxamido)piperidine-1-carboxylate], the “BTK_I_binding pIC50” value was <5.
For CC(=O)N1CCC[C@@H](NC(=O)c2sc3nccc4c3c2NC(=O)N4c2ccc(Oc3ccccn3)cc2)C1 [Example 808, (R)—N-(1-Acetylpiperidin-3-yl)-4-oxo-5-(4-(pyridin-2-yloxy)phenyl)-4,5-dihydro-3H-1-thia-3,5,8-triazaacenaphthylene-2-carboxamide], the “BTK_I_binding pIC50” value was <6.

Going from Cc1cc(Oc2cccc(COc3ccccc3C#N)c2)ccc1N1C(=O)Nc2c(C(=O)NC3CCNCC3)sc3nccc1c23 [Example 857, 5-(4-(3-((2-Cyanophenoxy)methyl)phenoxy)-2-methylphenyl)-4-oxo-N-(piperidin-4-yl)-4,5-dihydro-3H-1-thia-3,5,8-triazaacenaphthylene-2-carboxamide] to C=CC(=O)N1CCC[C@@H](NC(=O)c2sc3nccc4c3c2NC(=O)N4c2cc(-c3cccc(F)c3F)ccc2C)C1 [Example 842, (R)—N-(1-Acryloylpiperidin-3-yl)-5-(2′,3′-difluoro-4-methyl-[1,1′-biphenyl]-3-yl)-4-oxo-4,5-dihydro-3H-1-thia-3,5,8-triazaacenaphthylene-2-carboxamide], the “BTK_I_binding pIC50” value rises from 7.5 to 7.7.

Same assay, conditions: pIC50 = negative log of the IC50 in molar; 60 minutes incubation, 50 nM Tracer 236

Compared with Cc1cc(Oc2ccccc2)ccc1N1C(=O)Nc2c(C(=O)N[C@H]3CNC[C@@H]3F)sc3nccc1c23 [Example 218, N-((3S,4S)-4-Fluoropyrrolidin-3-yl)-5-(2-methyl-4-phenoxyphenyl)-4-oxo-4,5-dihydro-3H-1-thia-3,5,8-triazaacenaphthylene-2-carboxamide], Cc1cc(Oc2ccccc2)ccc1N1C(=O)Nc2c(C(=O)N[C@@H]3CCCNC3)sc3nccc1c23 (single isomer, unassigned) [Example 98, (R)-5-(*S)-(2-Methyl-4-phenoxyphenyl)-4-oxo-N-(piperidin-3-yl)-4,5-dihydro-3H-1-thia-3,5,8-triazaacenaphthylene-2-carboxamide] is higher in “BTK_I_binding pIC50” value: 6.8 for the first, 7.3 for the second.

Compared with Cc1cc(Oc2ccccc2)ccc1N1C(=O)Nc2c(C(=O)NC3CCNC(C)C3)sc3nccc1c23 (centres unmarked) [Example 258, 5-(2-methyl-4-phenoxyphenyl)-N-(2-methylpiperidin-4-yl)-4-oxo-4,5-dihydro-3H-1-thia-3,5,8-triazaacenaphthylene-2-carboxamide], Cc1cc(Oc2ccccc2)ccc1N1C(=O)Nc2c(C(=O)NC3CCC(C)N(C)C3)sc3nccc1c23 (centres unmarked) [Example 103, N-(1,6-Dimethylpiperidin-3-yl)-5-(2-methyl-4-phenoxyphenyl)-4-oxo-4,5-dihydro-3H-1-thia-3,5,8-triazaacenaphthylene-2-carboxamide] is higher in “BTK_I_binding pIC50” value: 6.5 for the first, 6.7 for the second.

CO[C@H]1CN(C)C[C@@H]1NC(=O)c1sc2nccc3c2c1NC(=O)N3c1ccc(Oc2ccccc2)cc1C [Example 244, N-((3S,4S)-4-Methoxy-1-methylpyrrolidin-3-yl)-5-(2-methyl-4-phenoxyphenyl)-4-oxo-4,5-dihydro-3H-1-thia-3,5,8-triazaacenaphthylene-2-carboxamide] and Cc1cc(Oc2ccccc2)ccc1N1C(=O)Nc2c(C(=O)NC3CCCN(C)CC3)sc3nccc1c23 (centres unmarked) [Example 187, 5-(2-Methyl-4-phenoxyphenyl)-N-(1-methylazepan-4-yl)-4-oxo-4,5-dihydro-3H-1-thia-3,5,8-triazaacenaphthylene-2-carboxamide] are within 0.2 log units of each other in “BTK_I_binding pIC50” value: 6.6 for the first, 6.7 for the second.

Going from C/C=C(\Cl)C(=O)N1CCC[C@@H](NC(=O)c2sc3nccc4c3c2NC(=O)N4c2ccc(Oc3ccccc3)cc2C)C1 [Example 277, (R,Z)—N-(1-(2-Chlorobut-2-enoyl)piperidin-3-yl)-5-(2-methyl-4-phenoxyphenyl)-4-oxo-4,5-dihydro-3H-1-thia-3,5,8-triazaacenaphthylene-2-carboxamide] to Cc1cc(Oc2ccccc2)ccc1N1C(=O)Nc2c(C(=O)N[C@@H]3CCN(C4CC4)C3)sc3nccc1c23 [Example 149, (R)—N-(1-Cyclopropylpyrrolidin-3-yl)-5-(2-methyl-4-phenoxyphenyl)-4-oxo-4,5-dihydro-3H-1-thia-3,5,8-triazaacenaphthylene-2-carboxamide], the “BTK_I_binding pIC50” value rises from 6.2 to 6.8.

First: C=CC(=O)N1CC[C@@H](NC(=O)c2sc3nccc4c3c2NC(=O)N4c2ccc(OC(C)C)cc2C)C1 [Example 126, (R)—N-(1-Acryloylpyrrolidin-3-yl)-5-(4-isopropoxy-2-methylphenyl)-4-oxo-4,5-dihydro-3H-1-thia-3,5,8-triazaacenaphthylene-2-carboxamide]
Second: CN1CCC[C@@H](NC(=O)c2sc3nccc4c3c2NC(=O)N4c2ccc(Oc3ccccc3)cc2F)C1 [Example 135, (R)-5-(2-Fluoro-4-phenoxyphenyl)-N-(1-methylpiperidin-3-yl)-4-oxo-4,5-dihydro-3H-1-thia-3,5,8-triazaacenaphthylene-2-carboxamide]
The “BTK_I_binding pIC50” value of the first is lower: 6.7 for the first, 7.2 for the second.

Cc1cc(Oc2ccccc2)ccc1N1C(=O)Nc2c(C(=O)N[C@@H]3CCCN(C(=O)/C(C#N)=C/C(C)(C)N4CCCCC4)C3)sc3nccc1c23 [Example 150, (R,E)-N-(1-(2-Cyano-4-methyl-4-(piperidin-1-yl)pent-2-enoyl)piperidin-3-yl)-5-(2-methyl-4-phenoxyphenyl)-4-oxo-4,5-dihydro-3H-1-thia-3,5,8-triazaacenaphthylene-2-carboxamide] was tested, and the “BTK_I_binding pIC50” value was 6.9.

Same assay, conditions: pIC50 = negative log of the IC50 in molar; 60 minutes incubation, 50 nM Tracer 236; read-out: BTK_I_binding pIC50 (converted)

First: Cc1cc(Oc2ccccc2)ccc1N1C(=O)Nc2c(C(=O)N[C@@H]3CCCN(C#N)C3)sc3nccc1c23 (single isomer, unassigned) [Example 35, (R)—N-(1-Cyanopiperidin-3-yl)-5-(*S)-(2-methyl-4-phenoxyphenyl)-4-oxo-4,5-dihydro-3H-1-thia-3,5,8-triazaacenaphthylene-2-carboxamide]
Second: C=CC(=O)N1C[C@H](NC(=O)c2sc3nccc4c3c2NC(=O)N4c2ccc(Oc3ccccc3)cc2C)[C@@H](F)C1 [Example 36, N-((3S,4S)-1-Acryloyl-4-fluoropyrrolidin-3-yl)-5-(2-methyl-4-phenoxyphenyl)-4-oxo-4,5-dihydro-3H-1-thia-3,5,8-triazaacenaphthylene-2-carboxamide]
The IC50 of the first is 1.6-fold higher: 31.6 nM for the first, 20 nM for the second.

Same assay, conditions: unphosphorylated-BTK kinase domain, 50 nM Tracer 236, 60 minutes; pIC50 = negative log of the IC50 in molar

First: O=C(N[C@@H]1CCCNC1)c1sc2nccc3c2c1NC(=O)N3c1ccnc(-c2ccccc2)c1 [Example 585, (R)-4-Oxo-5-(2-phenylpyridin-4-yl)-N-(piperidin-3-yl)-4,5-dihydro-3H-1-thia-3,5,8-triazaacenaphthylene-2-carboxamide]
Second: Cc1cc(C(C)C)ccc1N1C(=O)Nc2c(C(=O)N[C@@H]3CCCNC3)sc3nccc1c23 [Example 446, (R)-5-(4-Isopropyl-2-methylphenyl)-4-oxo-N-(piperidin-3-yl)-4,5-dihydro-3H-1-thia-3,5,8-triazaacenaphthylene-2-carboxamide]
The “BTK_I_binding pIC50” value of the first is higher: 6.5 for the first, 5.8 for the second.

Going from C=CC(=O)N1CCC[C@@H](NC(=O)c2sc3nccc4c3c2NC(=O)N4c2ncc(Oc3ccccc3)cc2C)C1 [Example 497, (R)—N-(1-Acryloylpiperidin-3-yl)-5-(3-methyl-5-phenoxypyridin-2-yl)-4-oxo-4,5-dihydro-3H-1-thia-3,5,8-triazaacenaphthylene-2-carboxamide] to C=CC(=O)N1CCC[C@@H](NC(=O)c2sc3nccc4c3c2NC(=O)N4c2cccc(C(C)=O)c2)C1 [Example 566, (R)-5-(3-Acetylphenyl)-N-(1-acryloylpiperidin-3-yl)-4-oxo-4,5-dihydro-3H-1-thia-3,5,8-triazaacenaphthylene-2-carboxamide], the “BTK_I_binding pIC50” value falls from 7.9 to 6.6.

In the case of C=CC(=O)N1CCC[C@@H](NC(=O)c2sc3nccc4c3c2NC(=O)N4c2cccc(-c3cccc(F)c3)c2)C1 [Example 500, (R)—N-(1-Acryloylpiperidin-3-yl)-5-(3′-fluoro-[1,1′-biphenyl]-3-yl)-4-oxo-4,5-dihydro-3H-1-thia-3,5,8-triazaacenaphthylene-2-carboxamide], the “BTK_I_binding pIC50” value is reported as 8.1.

Same assay, conditions: unphosphorylated-BTK kinase domain, 50 nM Tracer 236, 60 minutes; pIC50 = negative log of the IC50 in molar; read-out: BTK_I_binding pIC50 (converted)

[2H]C([2H])([2H])N1CCC[C@@H](NC(=O)c2sc3nccc4c3c2NC(=O)N4c2ccc(Oc3ccccc3)cc2C)C1 (single isomer, unassigned) [Example 535, (R)-5-(*S)-(2-Methyl-4-phenoxyphenyl)-N-(1-trideuteriomethylpiperidin-3-yl)-4-oxo-4,5-dihydro-3H-1-thia-3,5,8-triazaacenaphthylene-2-carboxamide] was tested, and the IC50 was 31.6 nM.

Same assay, conditions: unphosphorylated-BTK kinase domain, 60 minutes incubation, 50 nM Tracer 236; pIC50 = negative log of the IC50 in molar

CCC(=O)N1CCC(NC(=O)c2sc3nccc4c3c2NC(=O)N4c2ccc(Oc3ccccc3)cc2C)CC1 [Example 947, 5-(2-Methyl-4-phenoxyphenyl)-4-oxo-N-(1-propionylpiperidin-4-yl)-4,5-dihydro-3H-1-thia-3,5,8-triazaacenaphthylene-2-carboxamide] was tested, and the “BTK_I_binding pIC50” value was 5.4.
